In publication PMC4764904 (Scientific Reports, 2016):
Like-named read-outs stand apart in the source and are kept apart here. Where a SMILES comes first, the peptide text is derived from it. Where no end group is shown, it is not given here. [ ]: non-standard residue; d: D form. Cit = NC(=O)NCCC[C@H](N)C(=O)O; pGlu = O=C1CC[C@@H](C(=O)O)N1

What was measured:
human GALR3 = target: T1, human GALR3 (Homo sapiens, UniProt O60755); experiment: SRE-luc reporter assay, GALR3; type: cell-based;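 also: luciferase activity read in cell lysates across rising peptide concentrations, EC50 being the agonist concentration giving half-maximal stimulation from a sigmoidal nonlinear fit, Gαqi routing Gi-coupled receptor signaling through Gq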
T1 construct: host or cells: HEK293 cells stably expressing Gαqi
T1 sequence (O60755 1-368): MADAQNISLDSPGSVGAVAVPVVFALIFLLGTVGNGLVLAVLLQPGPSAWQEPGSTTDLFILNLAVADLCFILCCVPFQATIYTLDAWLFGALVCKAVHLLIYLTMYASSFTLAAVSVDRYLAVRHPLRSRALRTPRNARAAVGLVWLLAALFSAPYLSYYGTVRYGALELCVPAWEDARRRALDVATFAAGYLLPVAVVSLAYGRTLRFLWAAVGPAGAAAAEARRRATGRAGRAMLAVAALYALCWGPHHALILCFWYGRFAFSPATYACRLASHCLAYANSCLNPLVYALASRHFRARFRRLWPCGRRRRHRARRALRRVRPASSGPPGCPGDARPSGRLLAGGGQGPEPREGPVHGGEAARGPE

human GALR2 = target: T2, human GALR2 (Homo sapiens, UniProt O43603); experiment: SRE-luc reporter assay, GALR2; type: cell-based;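 also: luciferase activity read in cell lysates after exposure to rising peptide concentrations, EC50 being the agonist level giving half-maximal stimulation from a sigmoidal nonlinear regression fit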
T2 construct: host or cells: HEK293 cells stably expressing Gαqi
T2 sequence (O43603 1-387): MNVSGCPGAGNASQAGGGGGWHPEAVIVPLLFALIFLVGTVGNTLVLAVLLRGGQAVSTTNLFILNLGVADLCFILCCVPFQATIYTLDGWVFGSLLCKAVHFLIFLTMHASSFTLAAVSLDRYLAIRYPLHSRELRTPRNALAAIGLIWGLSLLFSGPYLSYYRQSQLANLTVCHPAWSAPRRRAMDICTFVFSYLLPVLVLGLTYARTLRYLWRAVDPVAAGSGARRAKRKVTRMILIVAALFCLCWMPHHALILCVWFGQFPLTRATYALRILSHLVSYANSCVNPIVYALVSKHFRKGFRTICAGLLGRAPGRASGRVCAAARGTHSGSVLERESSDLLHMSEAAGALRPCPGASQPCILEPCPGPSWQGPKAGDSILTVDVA

[1] = HEK293-Gqi cells transfected with SRE-luc and human GALR3, 6 h ligand treatment, mean ± S.E. of at least three independent experiments, NM = not measurable, read-out: GALR3 EC50
[2] = HEK293-Gqi cells transfected with SRE-luc and human GALR2, 6 h ligand treatment, mean ± S.E. of at least three independent experiments, NM = not measurable, read-out: GALR2 EC50

| Compound | EC50 (human GALR3; [1]) | EC50 (human GALR2; [2]) | EC50 (human GALR3) | EC50 (human GALR2) |
| --- | --- | --- | --- | --- |
| CSCC[C@H](NC(=O)[C@@H](C)NC(=O)[C@H](CCC(N)=O)NC(=O)[C@@H]1CCCN1C(=O)[C@@H](NC(=O)[C@H](Cc1c[nH]c2ccccc12)NC(=O)[C@@H](N)CC(N)=O)[C@@H](C)O)C(=O)N[C@@H](CC(C)C)C(=O)N[C@@H](Cc1ccc(O)cc1)C(=O)N[C@@H](CC(C)C)C(=O)N[C@@H](CCCCN)C(=O)NCC(=O)N[C@@H](C)C(=O)N[C@@H](CCC(N)=O)C(N)=O [dA6] | 316 ± 47.1 nM | 209 ± 27 nM |  |  |
| NWTPQAMLYLKGAH-NH2 [Ha14] | 70.8 ± 10.5 nM | 53.7 ± 6.92 nM |  |  |
| CSCC[C@H](NC(=O)[C@H](C)NC(=O)[C@H](CCC(N)=O)NC(=O)[C@@H]1CCCN1C(=O)[C@@H](NC(=O)[C@H](Cc1c[nH]c2ccccc12)NC(=O)[C@@H]1CCC(=O)N1)[C@@H](C)O)C(=O)N[C@@H](CC(C)C)C(=O)N[C@@H](Cc1ccc(O)cc1)C(=O)N[C@@H](CC(C)C)C(=O)N[C@@H](CCCCN)C(=O)NCC(=O)N[C@@H](C)C(=O)N[C@@H](CCC(N)=O)C(N)=O [pQ1] ([pGlu]WTPQAMLYLKGAQ-NH2) | 61.7 ± 10.4 nM | 35 ± 7.82 nM |  |  |
| NWTPQAALYLKGAQ-NH2 [A7] | 468 ± 69.6 nM | 38.9 ± 7.28 nM |  |  |
| CSCC[C@H](NC(=O)[C@H](C)NC(=O)[C@H](CCC(N)=O)NC(=O)[C@@H]1CCCN1C(=O)[C@@H](NC(=O)[C@H](Cc1c[nH]c2ccccc12)NC(=O)[C@@H](N)CC(N)=O)[C@@H](C)O)C(=O)N[C@@H](CC(C)C)C(=O)N[C@@H](Cc1ccc(O)cc1)C(=O)N[C@H](CC(C)C)C(=O)N[C@@H](CCCCN)C(=O)NCC(=O)N[C@@H](C)C(=O)N[C@@H](CCC(N)=O)C(N)=O [dL10] | > 10000 nM | > 10000 nM |  |  |
| CSCC[C@H](NC(=O)[C@H](C)NC(=O)[C@H](CCC(N)=O)NC(=O)[C@@H]1CCCN1C(=O)[C@@H](NC(=O)[C@H](Cc1c[nH]c2ccccc12)NC(=O)[C@@H](N)CC(N)=O)[C@@H](C)O)C(=O)N[C@@H](CC(C)C)C(=O)N[C@@H](Cc1ccc(O)cc1)C(=O)N[C@@H](CC(C)C)C(=O)N[C@@H](CCCCN)C(=O)N[C@H](C)C(=O)N[C@@H](C)C(=O)N[C@@H](CCC(N)=O)C(N)=O [dA12] (H-NWTPQAMLYLK[dA]AQ-NH2) | 1410 ± 210 nM | 1230 ± 159 nM |  |  |
| CSCC[C@H](NC(=O)[C@H](C)NC(=O)[C@H](CCC(N)=O)NC(=O)[C@@H]1CCCN1C(=O)[C@H](NC(=O)[C@H](Cc1c[nH]c2ccccc12)NC(=O)[C@@H](N)CC(N)=O)[C@H](C)O)C(=O)N[C@@H](CC(C)C)C(=O)N[C@@H](Cc1ccc(O)cc1)C(=O)N[C@@H](CC(C)C)C(=O)N[C@@H](CCCCN)C(=O)NCC(=O)N[C@@H](C)C(=O)N[C@@H](CCC(N)=O)C(N)=O [dT3] | > 10000 nM | > 10000 nM |  |  |
| NWTPNAALYLFGAQ-NH2 [N5A7F11] | > 10000 nM | 107 ± 20.1 nM |  |  |
| CSCC[C@H](NC(=O)[C@H](C)NC(=O)[C@H](CCC(N)=O)NC(=O)[C@@H]1CCCN1C(=O)[C@@H](NC(=O)[C@H](Cc1c[nH]c2ccccc12)NC(=O)[C@@H](N)CCCNC(N)=O)[C@@H](C)O)C(=O)N[C@@H](CC(C)C)C(=O)N[C@@H](Cc1ccc(O)cc1)C(=O)N[C@@H](CC(C)C)C(=O)N[C@@H](CCCCN)C(=O)NCC(=O)N[C@@H](C)C(=O)N[C@@H](CCC(N)=O)C(N)=O [Cit1] (H-[Cit]WTPQAMLYLKGAQ-NH2) | 251 ± 65 nM | 61.7 ± 19 nM |  |  |
| NWTPNAALYLFGAH-NH2 [N5A7F11H14] | 3020 ± 978 nM | 54.5 ± 10.8 nM |  |  |
| CSCC[C@H](NC(=O)[C@H](C)NC(=O)[C@H](CCC(N)=O)NC(=O)[C@@H]1CCCN1C(=O)[C@@H](NC(=O)[C@H](Cc1c[nH]c2ccccc12)NC(=O)[C@@H](N)CC(N)=O)[C@@H](C)O)C(=O)N[C@@H](CC(C)C)C(=O)N[C@H](Cc1ccc(O)cc1)C(=O)N[C@@H](CC(C)C)C(=O)N[C@@H](CCCCN)C(=O)NCC(=O)N[C@@H](C)C(=O)N[C@@H](CCC(N)=O)C(N)=O [dY9] | > 10000 nM | > 10000 nM |  |  |
| NWTPQAMLYLFGAQ-NH2 [F11] |  |  | 708 ± 119 nM | 49 ± 10.1 nM |
| NWTPQAALYLFGAQ-NH2 [A7F11] | > 10000 nM | 145 ± 27 nM |  |  |

Now from value to compound, other results behind:

| EC50 (human GALR3; [1]) | EC50 (human GALR2; [2]) | Compound | EC50 (human GALR3) | EC50 (human GALR2) |
| --- | --- | --- | --- | --- |
| 105 ± 17.6 nM | 58.9 ± 7.59 nM | NWTLQAMLYLKGAQ-NH2 [L4] |  |  |
| 331 ± 62 nM | 36.3 ± 10 nM | NWTPQAMLYLLGAQ-NH2 [L11] |  |  |
| 501 ± 184 nM | 61.7 ± 12.7 nM | NWTPNAMLYLKGAQ-NH2 [N5] |  |  |
| 380 ± 49.1 nM | 38.9 ± 5.8 nM | NWTPQAMLYLKGPQ-NH2 [P13] |  |  |
| 1230 ± 108 nM | 1020 ± 132 nM | NWTPQAMGYLKGAQ-NH2 [G8] |  |  |
| 93.3 ± 20.9 nM | 36.3 ± 7.47 nM | GWTPQAMLYLKGAQ-NH2 [G1] |  |  |
